In patent publication US20230278972A1, “SUBSTITUTED HALOALKYL SULFONANILIDE HERBICIDES” (FMC Corporation, priority 2020, published 2023):

Tests used:
Format in all cases: in vivo
[1] = test system: barnyardgrass (Echinochloa crus-galli); experiment: Test A preemergence, barnyardgrass; details: Preemergence; for Barnyardgrass plant response rating: 125 g ai/ha, visual injury on 0 to 100 scale (0 no effect, 100 complete control), approximately 10 days; for Plant response rating, Barnyardgrass: 500 g ai/ha, 0 to 100 scale (0 no effect, 100 complete control)
In short: (§1)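 Test chemicals, formulated in a non-phytotoxic solvent mixture with surfactant, were sprayed postemergence on plants 2 to 10 cm tall at the one- to two-leaf stage. Preemergence treatment was a directed soil spray onto freshly seeded pots. Both used a loam soil and sand blend.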

[2] = test system: Ryegrass, Italian (Italian ryegrass, Lolium multiflorum); experiment: Test A preemergence, Ryegrass, Italian; details: Preemergence; for Ryegrass, Italian plant response rating: 125 g ai/ha, visual injury on 0 to 100 scale (0 no effect, 100 complete control), approximately 10 days; for Plant response rating, Ryegrass, Italian: 500 g ai/ha, 0 to 100 scale (0 no effect, 100 complete control)
In short: as §1

kochia (Bassia scoparia) [3] = experiment: Test A postemergence, kochia; details: Postemergence, 0 to 100 scale (0 no effect, 100 complete control); for Plant response rating, Kochia: 125 g ai/ha, visual injury approx. 10 days; for Kochia plant response rating: 500 g ai/ha, visual injury vs untreated controls after approx. 10 days
In short: as §1

[4] = test system: galium (catchweed bedstraw, Galium aparine); experiment: Test A postemergence, galium; details: Postemergence, 0 to 100 scale (0 no effect, 100 complete control); for Plant response rating, Galium: 125 g ai/ha, visual injury approx. 10 days; for Galium plant response rating: 500 g ai/ha, visual injury vs untreated controls after approx. 10 days
In short: (§2)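 Compounds in non-phytotoxic solvent with surfactant. Soil: loam/sand. Preemergence via directed soil spray after seeding; postemergence on seedlings 2–10 cm, one- to two-leaf.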

[5] = test system: pigweed (Amaranthus retroflexus); experiment: Test A preemergence, pigweed; details: for Pigweed plant response rating: 125 g ai/ha, visual injury on 0 to 100 scale (0 no effect, 100 complete control), approximately 10 days; for Plant response rating, Pigweed: 500 g ai/ha, 0 to 100 scale (0 no effect, 100 complete control)
In short: as §2

[6] = test system: Ryegrass, Italian (Italian ryegrass, Lolium multiflorum); experiment: Test A postemergence, Ryegrass, Italian; details: Postemergence, 0 to 100 scale (0 no effect, 100 complete control); for Plant response rating, Ryegrass, Italian: 125 g ai/ha; for Ryegrass, Italian plant response rating: 500 g ai/ha, visual injury vs untreated controls after approx. 10 days
In short: as §1

[7] = test system: Foxtail, Giant (giant foxtail, Setaria faberi); experiment: Test A preemergence, Foxtail, Giant; details: Preemergence; for Foxtail, Giant plant response rating: 125 g ai/ha, visual injury on 0 to 100 scale (0 no effect, 100 complete control), approximately 10 days; for Plant response rating, Foxtail, Giant: 500 g ai/ha, 0 to 100 scale (0 no effect, 100 complete control)
In short: as §1

[8] = test system: wheat (Triticum aestivum); experiment: Test A postemergence, wheat; details: Postemergence, 0 to 100 scale (0 no effect, 100 complete control); for Plant response rating, Wheat: 125 g ai/ha; for Wheat plant response rating: 500 g ai/ha, visual injury vs untreated controls after approx. 10 days
In short: as §2

[9] = test system: barnyardgrass (Echinochloa crus-galli); experiment: Test A postemergence, barnyardgrass; details: Postemergence, 0 to 100 scale (0 no effect, 100 complete control); for Plant response rating, Barnyardgrass: 125 g ai/ha, visual injury approx. 10 days; for Barnyardgrass plant response rating: 500 g ai/ha, visual injury vs untreated controls after approx. 10 days
In short: as §2

[10] = test system: blackgrass (Alopecurus myosuroides); experiment: Test A postemergence, blackgrass; details: Postemergence, 0 to 100 scale (0 no effect, 100 complete control); for Plant response rating, Blackgrass: 125 g ai/ha, visual injury approx. 10 days; for Blackgrass plant response rating: 500 g ai/ha, visual injury vs untreated controls after approx. 10 days
In short: as §1

[11] = test system: pigweed (Amaranthus retroflexus); experiment: Test A postemergence, pigweed; details: Postemergence, 0 to 100 scale (0 no effect, 100 complete control); for Plant response rating, Pigweed: 125 g ai/ha; for Pigweed plant response rating: 500 g ai/ha, visual injury vs untreated controls after approx. 10 days
In short: as §1

[12] = test system: Foxtail, Giant (giant foxtail, Setaria faberi); experiment: Test A postemergence, Foxtail, Giant; details: Postemergence, 0 to 100 scale (0 no effect, 100 complete control); for Plant response rating, Foxtail, Giant: 125 g ai/ha, visual injury approx. 10 days; for Foxtail, Giant plant response rating: 500 g ai/ha, visual injury vs untreated controls after approx. 10 days
In short: as §1

kochia (Bassia scoparia) [13] = experiment: Test A preemergence, kochia; details: Preemergence; for Kochia plant response rating: 125 g ai/ha, visual injury on 0 to 100 scale (0 no effect, 100 complete control), approximately 10 days; for Plant response rating, Kochia: 500 g ai/ha, 0 to 100 scale (0 no effect, 100 complete control)
In short: as §1

[14] = test system: ragweed (common ragweed, Ambrosia artemisiifolia); experiment: Test A preemergence, ragweed; details: Preemergence; for Ragweed plant response rating: 125 g ai/ha, visual injury on 0 to 100 scale (0 no effect, 100 complete control), approximately 10 days; for Plant response rating, Ragweed: 500 g ai/ha, 0 to 100 scale (0 no effect, 100 complete control)
In short: as §1

corn (Zea mays) = experiment: Test A postemergence, corn; details: Postemergence, 0 to 100 scale (0 no effect, 100 complete control); for Plant response rating, Corn: 125 g ai/ha, visual injury approx. 10 days; for Corn plant response rating: 500 g ai/ha, visual injury vs untreated controls after approx. 10 days
In short: as §1

[15] = test system: ragweed (common ragweed, Ambrosia artemisiifolia); experiment: Test A postemergence, ragweed; details: Postemergence, 0 to 100 scale (0 no effect, 100 complete control); for Plant response rating, Ragweed: 125 g ai/ha; for Ragweed plant response rating: 500 g ai/ha, visual injury vs untreated controls after approx. 10 days
In short: as §1

Compound: Cc1cc(C#N)c(C(=O)N(C)C)cc1NS(=O)(=O)C(F)(F)F [Compound 134]
- Barnyardgrass plant response rating [1]: 0
- Plant response rating, Barnyardgrass [1]: 40
- Ryegrass, Italian plant response rating [2]: 20
- Plant response rating, Ryegrass, Italian [2]: 90
- Plant response rating, Kochia (kochia (Bassia scoparia) [3]): 40
- Kochia plant response rating (kochia (Bassia scoparia) [3]): 70
- Plant response rating, Galium [4]: 50
- Galium plant response rating [4]: 80
- Pigweed plant response rating [5]: 80
- Plant response rating, Pigweed [5]: 90
- Plant response rating, Ryegrass, Italian [6]: 0
- Ryegrass, Italian plant response rating [6]: 0
- Foxtail, Giant plant response rating [7]: 40
- Plant response rating, Foxtail, Giant [7]: 100
- Plant response rating, Wheat [8]: 0
- Wheat plant response rating [8]: 0
- Plant response rating, Barnyardgrass [9]: 0
- Barnyardgrass plant response rating [9]: 10
- Plant response rating, Blackgrass [10]: 0
- Blackgrass plant response rating [10]: 0
- Plant response rating, Pigweed [11]: 50
- Pigweed plant response rating [11]: 90
- Plant response rating, Foxtail, Giant [12]: 0
- Foxtail, Giant plant response rating [12]: 10
- Kochia plant response rating (kochia (Bassia scoparia) [13]): 0
- Plant response rating, Kochia (kochia (Bassia scoparia) [13]): 0
- Ragweed plant response rating [14]: 10
- Plant response rating, Ragweed [14]: 30
- Plant response rating, Corn (corn (Zea mays)): 0
- Corn plant response rating (corn (Zea mays)): 0
- Plant response rating, Ragweed [15]: 70
- Ragweed plant response rating [15]: 40

Compound: COC(=O)N(c1cc(-c2ccnn(C)c2=O)c(C)cc1C)S(=O)(=O)C(F)(F)F [Compound 53]
- Barnyardgrass plant response rating [1]: 0
- Plant response rating, Barnyardgrass [1]: 0
- Ryegrass, Italian plant response rating [2]: 0
- Plant response rating, Ryegrass, Italian [2]: 0
- Plant response rating, Kochia (kochia (Bassia scoparia) [3]): 0
- Kochia plant response rating (kochia (Bassia scoparia) [3]): 0
- Plant response rating, Galium [4]: 50
- Galium plant response rating [4]: 80
- Pigweed plant response rating [5]: 0
- Plant response rating, Pigweed [5]: 0
- Plant response rating, Ryegrass, Italian ([6]; visual injury approx. 10 days): 0
- Ryegrass, Italian plant response rating [6]: 0
- Foxtail, Giant plant response rating [7]: 0
- Plant response rating, Foxtail, Giant [7]: 0
- Plant response rating, Wheat ([8]; visual injury approx. 10 days): 0
- Wheat plant response rating [8]: 0
- Plant response rating, Barnyardgrass [9]: 0
- Barnyardgrass plant response rating [9]: 0
- Plant response rating, Blackgrass [10]: 0
- Blackgrass plant response rating [10]: 0
- Plant response rating, Pigweed ([11]; visual injury approx. 10 days): 0
- Pigweed plant response rating [11]: 0
- Plant response rating, Foxtail, Giant [12]: 0
- Foxtail, Giant plant response rating [12]: 0
- Kochia plant response rating (kochia (Bassia scoparia) [13]): 0
- Plant response rating, Kochia (kochia (Bassia scoparia) [13]): 0
- Ragweed plant response rating [14]: 0
- Plant response rating, Ragweed [14]: 40
- Plant response rating, Corn (corn (Zea mays)): 0
- Corn plant response rating (corn (Zea mays)): 0
- Plant response rating, Ragweed ([15]; visual injury approx. 10 days): 20
- Ragweed plant response rating [15]: 20

Compound: CCn1cc(-c2cc(NS(=O)(=O)C(F)(F)F)c(C)cc2C)c(=O)n(CC)c1=O [Compound 44]
- Barnyardgrass plant response rating [1]: 100
- Plant response rating, Barnyardgrass [1]: 100
- Ryegrass, Italian plant response rating [2]: 100
- Plant response rating, Ryegrass, Italian [2]: 100
- Plant response rating, Kochia (kochia (Bassia scoparia) [3]): 10
- Kochia plant response rating (kochia (Bassia scoparia) [3]): 30
- Plant response rating, Galium [4]: 80
- Galium plant response rating [4]: 90
- Pigweed plant response rating [5]: 40
- Plant response rating, Pigweed [5]: 100
- Plant response rating, Ryegrass, Italian ([6]; visual injury approx. 10 days): 30
- Ryegrass, Italian plant response rating [6]: 30
- Foxtail, Giant plant response rating [7]: 100
- Plant response rating, Foxtail, Giant [7]: 100
- Plant response rating, Wheat ([8]; visual injury approx. 10 days): 70
- Wheat plant response rating [8]: 70
- Plant response rating, Barnyardgrass [9]: 90
- Barnyardgrass plant response rating [9]: 90
- Plant response rating, Blackgrass [10]: 80
- Blackgrass plant response rating [10]: 90
- Plant response rating, Pigweed ([11]; visual injury approx. 10 days): 80
- Pigweed plant response rating [11]: 90
- Plant response rating, Foxtail, Giant [12]: 90
- Foxtail, Giant plant response rating [12]: 90
- Kochia plant response rating (kochia (Bassia scoparia) [13]): 0
- Plant response rating, Kochia (kochia (Bassia scoparia) [13]): 60
- Ragweed plant response rating [14]: 0
- Plant response rating, Ragweed [14]: 10
- Plant response rating, Corn (corn (Zea mays)): 0
- Corn plant response rating (corn (Zea mays)): 70
- Plant response rating, Ragweed ([15]; visual injury approx. 10 days): 20
- Ragweed plant response rating [15]: 50

Compound: COc1c(Cl)nn(C)c(=O)c1-c1cc(NS(=O)(=O)C(F)(F)F)c(C)cc1C [Compound 64]
- Barnyardgrass plant response rating [1]: 50
- Plant response rating, Barnyardgrass [1]: 90
- Ryegrass, Italian plant response rating [2]: 70
- Plant response rating, Ryegrass, Italian [2]: 100
- Plant response rating, Kochia (kochia (Bassia scoparia) [3]): 20
- Kochia plant response rating (kochia (Bassia scoparia) [3]): 60
- Plant response rating, Galium [4]: 0
- Galium plant response rating [4]: 30
- Pigweed plant response rating [5]: 40
- Plant response rating, Pigweed [5]: 50
- Plant response rating, Ryegrass, Italian ([6]; visual injury approx. 10 days): 40
- Ryegrass, Italian plant response rating [6]: 80
- Foxtail, Giant plant response rating [7]: 90
- Plant response rating, Foxtail, Giant [7]: 90
- Plant response rating, Wheat ([8]; visual injury approx. 10 days): 40
- Wheat plant response rating [8]: 60
- Plant response rating, Barnyardgrass [9]: 20
- Barnyardgrass plant response rating [9]: 20
- Plant response rating, Blackgrass [10]: 0
- Blackgrass plant response rating [10]: 30
- Plant response rating, Pigweed ([11]; visual injury approx. 10 days): 20
- Pigweed plant response rating [11]: 30
- Plant response rating, Foxtail, Giant [12]: 0
- Foxtail, Giant plant response rating [12]: 60
- Kochia plant response rating (kochia (Bassia scoparia) [13]): 40
- Plant response rating, Kochia (kochia (Bassia scoparia) [13]): 90
- Ragweed plant response rating [14]: 0
- Plant response rating, Ragweed [14]: 40
- Plant response rating, Corn (corn (Zea mays)): 0
- Corn plant response rating (corn (Zea mays)): 0
- Plant response rating, Ragweed ([15]; visual injury approx. 10 days): 0
- Ragweed plant response rating [15]: 0
